According to ChEMBL document CHEMBL1201862, “PubChem BioAssay data set” (2004):
Values belong to the compound of their own block, whether it stands above or below them. Calls of active or inactive are those of the source.

Columns and labels:
[1] = target: Glucose-6-phosphate 1-dehydrogenase (Homo sapiens, UniProt P11413); test: human G6PD enzyme inhibitors, dose response, selectivity assay for P. falciparum G6PD inhibitor project, biochemical, fluorescence (AID 504792); assay type: functional
[2] = target: T1, Calpain-2 catalytic subunit (Sus scrofa, UniProt P43367); test: pig calpain II inhibitor potency, dose response, biochemical, fluorogenic peptide substrate (AID 1420); assay type: functional
T1 sequence (P43367 whole entry): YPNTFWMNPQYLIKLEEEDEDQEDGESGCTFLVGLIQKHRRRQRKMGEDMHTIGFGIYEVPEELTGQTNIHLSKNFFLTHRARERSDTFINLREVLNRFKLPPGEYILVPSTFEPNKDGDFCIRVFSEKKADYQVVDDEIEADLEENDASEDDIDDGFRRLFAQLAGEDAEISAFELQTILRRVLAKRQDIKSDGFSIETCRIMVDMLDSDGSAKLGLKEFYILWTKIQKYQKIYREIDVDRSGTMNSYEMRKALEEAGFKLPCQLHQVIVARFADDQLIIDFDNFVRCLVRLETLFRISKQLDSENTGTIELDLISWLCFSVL

[3] = target: Mu-type opioid receptor (Homo sapiens, UniProt P35372); assay type: functional, cell-based;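 note: U2OS cells with beta-arrestin recruitment to OPRM1 by beta-gal complementation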
[4] = target: 5-hydroxytryptamine receptor 2A (Mus musculus, UniProt P35363); assay type: functional, cell-based;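 note: CHO-K1 cells with tagged receptor and beta-arrestin; agonist potency measured as compound-induced activation of the receptor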
[5] = target: Voltage-dependent T-type calcium channel subunit alpha-1H (Homo sapiens, UniProt O95180); assay type: functional;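 note: channel activity triggered by adding a high calcium stimulation buffer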
[6] = target: Cytochrome P450 2C9 (Homo sapiens, UniProt P11712)
[7] = target: Cytochrome P450 2C19 (Homo sapiens, UniProt P33261); test: Cytochrome panel assay with activity outcomes. Panel member name: p450-cyp2c19 Compounds with AC50 equal or less than 10 uM are considered active; assay type: functional; details: read-out: AC50
[8] = target: Induced myeloid leukemia cell differentiation protein Mcl-1 (Homo sapiens, UniProt Q07820); assay type: functional
[9] = target: Cytochrome P450 2D6 (Homo sapiens, UniProt P10635);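 note: CYP2D6 member of a cytochrome P450 panel assay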
[10] = target: T2, Corticotropin-releasing factor receptor 2/Corticotropin-releasing factor-binding protein (Homo sapiens, UniProt P24387+Q13324); test: activators of CRF receptor 2 with binding protein – uHTS hits, confirmation (AID 602473); assay type: functional; details: read-out: EC50_Mean
T2 sequence (Q13324 whole entry): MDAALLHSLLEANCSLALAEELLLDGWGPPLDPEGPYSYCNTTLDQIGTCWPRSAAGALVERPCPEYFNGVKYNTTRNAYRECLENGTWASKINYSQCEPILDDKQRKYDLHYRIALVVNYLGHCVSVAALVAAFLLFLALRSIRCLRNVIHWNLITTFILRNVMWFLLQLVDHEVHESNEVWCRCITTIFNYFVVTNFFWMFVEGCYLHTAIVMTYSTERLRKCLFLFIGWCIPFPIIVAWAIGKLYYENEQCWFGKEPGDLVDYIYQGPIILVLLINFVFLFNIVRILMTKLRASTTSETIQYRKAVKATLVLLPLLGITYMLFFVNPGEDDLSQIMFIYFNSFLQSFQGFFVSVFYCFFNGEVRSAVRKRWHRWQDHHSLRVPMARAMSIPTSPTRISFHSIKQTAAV
T2 sequence (P24387 whole entry): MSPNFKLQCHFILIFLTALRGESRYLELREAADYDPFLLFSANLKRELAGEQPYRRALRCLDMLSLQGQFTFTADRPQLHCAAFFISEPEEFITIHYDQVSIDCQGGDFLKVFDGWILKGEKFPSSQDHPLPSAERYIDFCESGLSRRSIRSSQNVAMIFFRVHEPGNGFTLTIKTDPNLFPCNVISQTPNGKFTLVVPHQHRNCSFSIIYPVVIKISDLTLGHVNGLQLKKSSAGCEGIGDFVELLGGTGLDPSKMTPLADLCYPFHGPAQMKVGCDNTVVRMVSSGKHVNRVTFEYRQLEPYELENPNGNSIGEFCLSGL

[11] = target: T2, Corticotropin-releasing factor receptor 2/Corticotropin-releasing factor-binding protein; test: Dose Response confirmation of uHTS hits for small molecule antagonists of the CRF-binding protein and CRF-R2 receptor complex.; assay type: functional; details: read-out: IC50_Mean
[12] = target: T3, Cytochrome P450 1A2 (Homo sapiens, UniProt P05177);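 note: PubChem cytochrome P450 panel assay, CYP1A2 panel member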
T3 sequence (P05177 whole entry): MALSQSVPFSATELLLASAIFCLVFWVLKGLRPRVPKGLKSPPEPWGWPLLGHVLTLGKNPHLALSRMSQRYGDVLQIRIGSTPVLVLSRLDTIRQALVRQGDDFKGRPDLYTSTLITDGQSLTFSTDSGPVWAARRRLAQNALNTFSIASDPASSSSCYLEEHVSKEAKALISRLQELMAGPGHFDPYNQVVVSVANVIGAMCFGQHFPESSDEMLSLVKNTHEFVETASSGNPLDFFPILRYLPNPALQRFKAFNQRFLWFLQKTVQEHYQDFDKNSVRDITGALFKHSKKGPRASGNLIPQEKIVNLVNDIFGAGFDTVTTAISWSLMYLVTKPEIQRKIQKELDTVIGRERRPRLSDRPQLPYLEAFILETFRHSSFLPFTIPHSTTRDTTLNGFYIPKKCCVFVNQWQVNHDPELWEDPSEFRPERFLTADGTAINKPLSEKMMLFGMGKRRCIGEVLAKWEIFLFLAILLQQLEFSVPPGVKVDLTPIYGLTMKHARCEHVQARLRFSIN

[13] = target: Cytochrome P450 3A4 (Homo sapiens, UniProt P08684);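 note: CYP3A4 tested as one member of a cytochrome P450 panel screen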
[14] = target: T4, Short transient receptor potential channel 4 (Mus musculus, UniProt Q9QUQ5); test: mouse TRPC4 channel inhibitors, dose response, cell-based, HEK293 TRPC4/mu-opioid, Fluo-4 calcium (AID 434942); assay type: functional;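 note: potency of inhibitors blocking the TRPC4 calcium response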
T4 sequence (Q9QUQ5 whole entry): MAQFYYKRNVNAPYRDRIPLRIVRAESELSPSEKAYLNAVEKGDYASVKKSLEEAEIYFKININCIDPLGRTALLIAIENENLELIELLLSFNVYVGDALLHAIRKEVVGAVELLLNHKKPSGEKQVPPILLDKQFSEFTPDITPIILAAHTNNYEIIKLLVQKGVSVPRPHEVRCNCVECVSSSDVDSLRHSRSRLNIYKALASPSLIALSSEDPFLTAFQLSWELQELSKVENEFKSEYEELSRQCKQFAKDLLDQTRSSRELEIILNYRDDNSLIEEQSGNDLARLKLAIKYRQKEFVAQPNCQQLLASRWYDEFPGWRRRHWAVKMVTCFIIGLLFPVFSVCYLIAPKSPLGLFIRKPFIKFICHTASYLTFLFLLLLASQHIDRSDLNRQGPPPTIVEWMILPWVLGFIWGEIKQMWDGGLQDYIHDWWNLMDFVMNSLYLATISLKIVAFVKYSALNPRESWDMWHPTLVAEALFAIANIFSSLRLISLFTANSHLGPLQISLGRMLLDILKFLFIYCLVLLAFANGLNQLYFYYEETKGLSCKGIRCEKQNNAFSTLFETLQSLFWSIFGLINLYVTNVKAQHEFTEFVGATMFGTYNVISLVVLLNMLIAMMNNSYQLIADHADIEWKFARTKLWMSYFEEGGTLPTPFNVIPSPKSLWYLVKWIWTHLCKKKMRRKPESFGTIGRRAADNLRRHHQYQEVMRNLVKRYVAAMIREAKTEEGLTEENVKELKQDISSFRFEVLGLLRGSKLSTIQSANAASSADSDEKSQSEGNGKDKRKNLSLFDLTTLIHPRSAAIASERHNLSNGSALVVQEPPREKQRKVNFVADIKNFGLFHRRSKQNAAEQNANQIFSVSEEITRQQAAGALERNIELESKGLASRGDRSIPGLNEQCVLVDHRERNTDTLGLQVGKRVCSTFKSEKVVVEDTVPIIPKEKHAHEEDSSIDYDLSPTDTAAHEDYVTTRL

[15] = target: SWI/SNF-related matrix-associated actin-dependent regulator of chromatin subfamily A member 2 (Homo sapiens, UniProt P51531); test: Luminescence-based cell-based high throughput dose response assay to identify activators of the function of SWI/SNF related, matrix associated, actin dependent regulator of chromatin, subfamily a, member 2 (SMARCA2, BRM).; assay type: functional
[16] = Counterscreen for activators of the function of SWI/SNF related, matrix associated, actin dependent regulator of chromatin, subfamily a, member 2 (SMARCA2, BRM): Luminescence-based cell-based high throughput dose response assay to identify non-selective compounds using the VP16 reporter assay.; assay type: functional
[17] = target: Prothrombin (Homo sapiens, UniProt P00734); test: Thrombin 1536 HTS Dose Response Confirmation. [Related pubchem assays: 1046 (Thrombin 1536 HTS; hits were confirmed in this assay)]; assay type: functional
[18] = target: T5, Heat shock factor protein 1 (Mus musculus, UniProt P38532); test: inhibition of MG132-induced HSE-luciferase signal, confirmation, cell-based, NIH3T3, luminescence, dose retest (AID 2382); assay type: functional;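 note: NIH3T3 fibroblasts with HSF1-driven luciferase reporter stressed by proteasome inhibitor MG132; luminescence from HSF1-driven luciferase expression after 8 hours of MG132 stress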
T5 sequence (P38532 whole entry): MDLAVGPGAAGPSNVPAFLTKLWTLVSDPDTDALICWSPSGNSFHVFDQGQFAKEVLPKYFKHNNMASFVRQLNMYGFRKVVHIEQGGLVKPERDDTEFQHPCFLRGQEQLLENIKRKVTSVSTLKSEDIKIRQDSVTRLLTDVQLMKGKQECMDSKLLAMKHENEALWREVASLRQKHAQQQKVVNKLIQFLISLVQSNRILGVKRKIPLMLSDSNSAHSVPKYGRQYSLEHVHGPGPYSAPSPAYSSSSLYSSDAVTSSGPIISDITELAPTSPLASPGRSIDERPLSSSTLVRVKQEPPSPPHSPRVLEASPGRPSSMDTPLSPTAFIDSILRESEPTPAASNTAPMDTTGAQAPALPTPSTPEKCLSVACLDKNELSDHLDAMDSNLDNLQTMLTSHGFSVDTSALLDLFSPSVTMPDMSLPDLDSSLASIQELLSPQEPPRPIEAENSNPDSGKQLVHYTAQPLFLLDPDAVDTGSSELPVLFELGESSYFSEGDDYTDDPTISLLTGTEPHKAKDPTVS

[19] = growth suppression of beta-catenin-knockout colon cells, dose response, cell-based, HCT116, human colon tumor (AID 1045); assay type: functional;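 note: HCT116 colon tumor cells with beta catenin knocked out; cells exposed to compound for 60 hours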
[20] = growth suppression of PTEN-null colon cells, dose response, cell-based, HCT116 PTEN knockout (AID 1047); assay type: functional;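 note: HCT116 colon tumor cells with PTEN knocked out; cells exposed to compound for 60 hours before readout; potency for loss of cell viability measured by luminescence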
[21] = cells; assay type: functional, cell-based
[22] = cells; assay type: functional, cell-based; remark: listed apart in the source

Glucose-6-phosphate 1-dehydrogenase, sequence (P11413 whole entry): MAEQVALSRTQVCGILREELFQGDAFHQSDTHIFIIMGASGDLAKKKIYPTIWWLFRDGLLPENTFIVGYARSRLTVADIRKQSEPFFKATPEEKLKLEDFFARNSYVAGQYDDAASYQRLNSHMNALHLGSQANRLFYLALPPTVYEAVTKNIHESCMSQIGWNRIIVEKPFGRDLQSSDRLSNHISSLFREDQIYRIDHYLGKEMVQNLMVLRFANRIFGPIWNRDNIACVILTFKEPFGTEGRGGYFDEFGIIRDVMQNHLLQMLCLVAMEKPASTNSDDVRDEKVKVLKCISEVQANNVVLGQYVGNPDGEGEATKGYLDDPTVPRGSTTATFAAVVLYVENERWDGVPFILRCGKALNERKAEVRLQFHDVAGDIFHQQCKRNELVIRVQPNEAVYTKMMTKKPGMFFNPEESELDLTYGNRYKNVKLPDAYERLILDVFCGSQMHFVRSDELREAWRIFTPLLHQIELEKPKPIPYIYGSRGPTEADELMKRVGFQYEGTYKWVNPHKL
Mu-type opioid receptor, sequence (P35372 whole entry): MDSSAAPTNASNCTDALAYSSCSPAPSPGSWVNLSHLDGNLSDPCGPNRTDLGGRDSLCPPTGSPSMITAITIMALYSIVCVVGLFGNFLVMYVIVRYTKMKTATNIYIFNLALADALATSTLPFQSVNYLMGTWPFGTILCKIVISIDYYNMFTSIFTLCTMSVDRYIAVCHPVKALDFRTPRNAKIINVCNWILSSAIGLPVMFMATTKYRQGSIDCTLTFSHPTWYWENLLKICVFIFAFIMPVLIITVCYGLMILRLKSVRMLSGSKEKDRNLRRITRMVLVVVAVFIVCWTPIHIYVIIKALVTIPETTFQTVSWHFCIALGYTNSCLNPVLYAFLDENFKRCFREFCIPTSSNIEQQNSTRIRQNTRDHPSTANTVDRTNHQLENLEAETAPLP
5-hydroxytryptamine receptor 2A, sequence (P35363 whole entry): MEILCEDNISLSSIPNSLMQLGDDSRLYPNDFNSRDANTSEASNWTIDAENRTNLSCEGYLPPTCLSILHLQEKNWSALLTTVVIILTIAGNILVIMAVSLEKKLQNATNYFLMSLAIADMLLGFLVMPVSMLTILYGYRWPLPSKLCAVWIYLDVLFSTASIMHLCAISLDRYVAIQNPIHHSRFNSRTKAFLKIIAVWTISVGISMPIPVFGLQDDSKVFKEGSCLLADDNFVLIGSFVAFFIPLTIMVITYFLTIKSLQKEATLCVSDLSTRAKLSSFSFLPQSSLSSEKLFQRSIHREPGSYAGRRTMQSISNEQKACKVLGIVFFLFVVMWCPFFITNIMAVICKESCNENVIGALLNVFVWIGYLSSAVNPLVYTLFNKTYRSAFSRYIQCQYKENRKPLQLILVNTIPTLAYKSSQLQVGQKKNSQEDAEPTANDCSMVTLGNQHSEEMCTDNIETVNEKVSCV
Voltage-dependent T-type calcium channel subunit alpha-1H, sequence (O95180 whole entry): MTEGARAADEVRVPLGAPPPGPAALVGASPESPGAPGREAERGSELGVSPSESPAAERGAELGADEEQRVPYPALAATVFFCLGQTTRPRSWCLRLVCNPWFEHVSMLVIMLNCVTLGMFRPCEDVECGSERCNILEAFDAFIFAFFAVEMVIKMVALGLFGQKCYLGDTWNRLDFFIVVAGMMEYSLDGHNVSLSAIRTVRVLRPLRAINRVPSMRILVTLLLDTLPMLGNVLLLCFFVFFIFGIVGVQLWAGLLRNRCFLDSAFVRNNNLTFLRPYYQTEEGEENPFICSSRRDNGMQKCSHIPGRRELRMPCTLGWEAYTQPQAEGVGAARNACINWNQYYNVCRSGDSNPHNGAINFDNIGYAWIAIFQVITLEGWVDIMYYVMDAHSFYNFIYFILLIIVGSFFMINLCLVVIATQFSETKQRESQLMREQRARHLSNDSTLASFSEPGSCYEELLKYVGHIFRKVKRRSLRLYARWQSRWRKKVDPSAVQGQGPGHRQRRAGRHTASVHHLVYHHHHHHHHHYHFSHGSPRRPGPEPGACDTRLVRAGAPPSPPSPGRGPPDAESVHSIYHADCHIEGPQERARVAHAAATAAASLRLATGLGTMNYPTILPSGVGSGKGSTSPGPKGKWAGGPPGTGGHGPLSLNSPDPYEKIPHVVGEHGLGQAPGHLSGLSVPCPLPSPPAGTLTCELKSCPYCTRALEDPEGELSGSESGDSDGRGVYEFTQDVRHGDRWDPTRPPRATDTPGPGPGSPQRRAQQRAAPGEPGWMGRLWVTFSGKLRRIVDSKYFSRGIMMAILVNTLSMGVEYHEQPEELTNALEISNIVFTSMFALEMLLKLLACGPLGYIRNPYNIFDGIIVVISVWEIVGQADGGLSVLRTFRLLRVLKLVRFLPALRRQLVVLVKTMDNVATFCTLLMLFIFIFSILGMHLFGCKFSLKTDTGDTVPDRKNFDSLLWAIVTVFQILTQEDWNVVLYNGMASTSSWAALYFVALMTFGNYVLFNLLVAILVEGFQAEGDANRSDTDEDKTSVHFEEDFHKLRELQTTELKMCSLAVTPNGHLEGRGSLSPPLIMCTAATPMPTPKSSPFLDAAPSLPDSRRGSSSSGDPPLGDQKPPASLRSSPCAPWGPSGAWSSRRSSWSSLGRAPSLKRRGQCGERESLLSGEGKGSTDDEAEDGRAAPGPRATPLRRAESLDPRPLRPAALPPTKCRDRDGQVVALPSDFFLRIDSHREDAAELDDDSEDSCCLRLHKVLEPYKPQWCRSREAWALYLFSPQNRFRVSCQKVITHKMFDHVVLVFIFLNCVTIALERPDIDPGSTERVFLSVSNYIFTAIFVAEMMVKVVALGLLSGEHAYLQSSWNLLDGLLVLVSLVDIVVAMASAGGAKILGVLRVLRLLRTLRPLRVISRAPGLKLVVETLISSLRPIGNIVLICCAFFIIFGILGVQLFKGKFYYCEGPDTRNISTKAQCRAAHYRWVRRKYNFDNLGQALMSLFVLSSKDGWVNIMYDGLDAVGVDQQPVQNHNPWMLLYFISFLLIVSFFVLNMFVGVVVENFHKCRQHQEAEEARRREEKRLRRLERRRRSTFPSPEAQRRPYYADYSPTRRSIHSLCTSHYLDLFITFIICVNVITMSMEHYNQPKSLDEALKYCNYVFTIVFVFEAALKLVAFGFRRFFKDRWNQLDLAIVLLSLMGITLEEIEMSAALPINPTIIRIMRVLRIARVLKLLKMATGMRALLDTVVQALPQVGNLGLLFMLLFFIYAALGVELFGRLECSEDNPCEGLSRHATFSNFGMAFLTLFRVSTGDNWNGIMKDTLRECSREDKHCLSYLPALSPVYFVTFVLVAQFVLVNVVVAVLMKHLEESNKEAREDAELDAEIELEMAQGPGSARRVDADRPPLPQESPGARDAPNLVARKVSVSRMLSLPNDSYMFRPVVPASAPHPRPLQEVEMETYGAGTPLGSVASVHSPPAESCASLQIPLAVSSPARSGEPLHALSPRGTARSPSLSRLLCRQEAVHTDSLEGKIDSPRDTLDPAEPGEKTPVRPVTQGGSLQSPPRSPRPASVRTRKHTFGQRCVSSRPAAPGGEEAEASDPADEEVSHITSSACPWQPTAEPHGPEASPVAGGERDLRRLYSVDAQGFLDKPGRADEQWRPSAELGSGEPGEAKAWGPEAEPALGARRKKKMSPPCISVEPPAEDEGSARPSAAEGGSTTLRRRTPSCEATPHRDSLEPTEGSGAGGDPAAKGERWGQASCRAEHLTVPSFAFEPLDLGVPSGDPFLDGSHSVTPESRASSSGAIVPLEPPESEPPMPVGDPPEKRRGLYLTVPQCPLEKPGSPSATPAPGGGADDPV
Cytochrome P450 2D6, sequence (P10635 whole entry): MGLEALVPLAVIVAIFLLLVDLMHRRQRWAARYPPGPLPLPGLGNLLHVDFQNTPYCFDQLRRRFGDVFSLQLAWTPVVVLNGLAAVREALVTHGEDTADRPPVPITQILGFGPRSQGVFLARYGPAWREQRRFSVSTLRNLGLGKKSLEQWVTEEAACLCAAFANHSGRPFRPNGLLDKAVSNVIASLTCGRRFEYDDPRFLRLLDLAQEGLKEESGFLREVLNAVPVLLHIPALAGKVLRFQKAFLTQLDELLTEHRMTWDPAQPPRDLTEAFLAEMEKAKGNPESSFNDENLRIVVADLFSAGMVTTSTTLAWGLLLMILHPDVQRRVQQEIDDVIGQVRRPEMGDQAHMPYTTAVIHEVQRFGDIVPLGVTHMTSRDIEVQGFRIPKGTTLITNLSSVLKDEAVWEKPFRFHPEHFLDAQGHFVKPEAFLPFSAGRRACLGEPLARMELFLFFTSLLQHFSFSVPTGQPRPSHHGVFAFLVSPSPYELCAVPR
Cytochrome P450 2C19, sequence (P33261 whole entry): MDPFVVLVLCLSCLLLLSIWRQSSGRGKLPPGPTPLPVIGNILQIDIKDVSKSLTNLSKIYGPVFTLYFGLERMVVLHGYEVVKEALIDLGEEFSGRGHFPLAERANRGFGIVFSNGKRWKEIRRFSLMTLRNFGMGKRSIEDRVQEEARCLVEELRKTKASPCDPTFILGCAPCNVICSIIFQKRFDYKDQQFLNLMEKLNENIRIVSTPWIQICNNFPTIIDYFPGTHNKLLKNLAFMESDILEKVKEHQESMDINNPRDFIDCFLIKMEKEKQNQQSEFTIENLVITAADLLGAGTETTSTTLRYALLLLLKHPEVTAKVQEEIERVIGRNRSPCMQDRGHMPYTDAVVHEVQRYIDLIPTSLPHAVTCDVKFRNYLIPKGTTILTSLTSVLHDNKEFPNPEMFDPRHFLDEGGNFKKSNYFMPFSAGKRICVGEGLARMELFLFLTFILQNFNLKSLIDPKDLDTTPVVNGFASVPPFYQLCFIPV
Induced myeloid leukemia cell differentiation protein Mcl-1, sequence (Q07820 whole entry): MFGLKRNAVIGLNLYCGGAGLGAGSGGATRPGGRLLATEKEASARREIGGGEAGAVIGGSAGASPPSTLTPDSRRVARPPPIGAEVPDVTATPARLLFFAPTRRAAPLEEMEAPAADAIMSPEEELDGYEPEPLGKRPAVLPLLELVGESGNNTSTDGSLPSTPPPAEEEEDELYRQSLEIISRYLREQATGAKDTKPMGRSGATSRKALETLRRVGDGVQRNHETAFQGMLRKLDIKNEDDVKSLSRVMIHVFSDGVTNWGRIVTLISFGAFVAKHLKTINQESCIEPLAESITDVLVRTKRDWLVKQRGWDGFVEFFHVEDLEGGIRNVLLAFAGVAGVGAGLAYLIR

Compound: CCn1c(SCc2nc3scc(-c4ccccc4)c3c(=O)[nH]2)nnc1-c1cccs1
- IC50 [1]: > 80 µM (inactive)

- IC50 [2]: 19.3 µM (not active)
Compound: Cc1ccc(N2CCN(C3=NC(=O)/C(=C\c4cccs4)S3)CC2)cc1

- EC50 [3]: 92.5 µM (inactive)
- EC50 [4]: 76.1 µM (inactive)
Compound: O=S(=O)(c1ccc(OCC(O)CN2CCN(c3ccccc3O)CC2)cc1)N1CCOCC1 (centres undefined)

- EC50 [5]: 11.3 µM (active)
Compound: COc1ccc(-c2nnc(N3CCCCC3)c3ccccc23)cc1

- EC50 [3]: 92.5 µM (inactive)
- EC50 [4]: 25.4 µM (inactive)
Compound: O=S(=O)(c1ccc(OCC(O)CN2CCN(c3ccccc3Cl)CC2)cc1)N1CCOCC1 (centres undefined)

- AC50 [6]: 3.98 µM (inconclusive)
- AC50 [7]: 2 µM (inconclusive)
- EC50 [5]: 0.802 µM (active)
- IC50 [8]: 2.32 µM (not active)
- AC50 [9]: 22.4 µM (inconclusive)
Compound: O=C(Nc1ccc(Cl)cc1)N1CCc2[nH]c3ccccc3c2C1

- EC50 [10]: > 53 µM (inactive)
- IC50 [11]: > 47.1 µM (inactive)
Compound: CC1CCC2=NN(C(=O)c3ccco3)C(O)(C(F)(F)F)C2C1 (centres undefined)

- AC50 [12]: 2.51 µM (inconclusive)
- EC50 [5]: 2.89 µM (active)
- AC50 [13]: 14.1 µM (inconclusive)
Compound: CCC(C(=O)Nc1cccc(C(F)(F)F)c1)c1ccccc1 (centres undefined)

- IC50 [2]: > 50 µM (not active)
Compound: O=C1c2ccccc2C(=O)N1CCc1csc(-c2ccc(F)cc2)n1

- IC50 [2]: 9.21 µM (not active)
- EC50 [14]: 1.88 µM (active)
Compound: COCCn1c(SCc2ccccc2F)nc2ccccc2c1=O

- EC50 [10]: > 53 µM (inactive)
- IC50 [11]: > 47.1 µM (inactive)
Compound: C[C@H](NC(=O)Nc1ccc2c(c1)OCCO2)C(=O)O

- EC50 [5]: 5.35 µM (active)
Compound: O=C(CN1C(=O)C2CC=CCC2C1=O)Nc1nnc(SCc2ccc(Cl)cc2)s1 (centres undefined)

- EC50 [5]: 1.95 µM (active)
Compound: Cc1ccc(-c2noc(CSc3nnnn3C3CCCCC3)n2)cc1

- IC50 [2]: 2.3 µM (active)
Compound: COc1ccc(CNc2nc3c(c(=O)n(Cc4ccc(Br)cc4)c(=O)n3C)n2C)cc1

Compound: Nc1nc(CN2CCN(Cc3ccccc3)CC2)nc(Nc2ccc3c(c2)OCCO3)n1
- EC50 [15]: > 91.2 µM (inactive)
- EC50 [16]: > 91.2 µM (inactive)

Compound: CC(=O)c1cccc(OCC(O)CN2CC=C(c3ccccc3)CC2)c1 (centres undefined)
- EC50 [3]: 92.5 µM (inactive)
- EC50 [4]: 0.0752 µM (active)

- EC50 [10]: > 53 µM (inactive)
- IC50 [11]: > 47.1 µM (inactive)
Compound: Cc1ccc(CN(C(=O)c2ccccc2[N+](=O)[O-])C2CCS(=O)(=O)C2)o1 (centres undefined)

- IC50 [1]: > 80 µM (inactive)
Compound: Cc1ccc(S(=O)(=O)N(C)C)cc1NC(=O)CSc1nc2cc(Cl)c[nH]c-2n1

- IC50 [17]: 1.37 µM (active)
- EC50 [18]: > 195 µM (not active)
Compound: O=C(Oc1oc(-c2ccco2)nc1/C=N/c1ccccc1)c1ccoc1

Compound: C=CCOc1ccc(/C=N/N2C(=O)C(CC(=O)Nc3ccc(F)cc3F)S/C2=N\C)cc1 (centres undefined)
- IC50 [2]: > 50 µM (not active)
- EC50 [19]: 79.4 µM (active)
- EC50 [20]: 17.6 µM (active)

Compound: COc1cccc(/C=N\NC(=O)Cn2nnc3ccccc32)c1O
- EC50 [21]: 172 µM (active)
- EC50 [22]: > 350 µM (not active)

- EC50 [3]: 92.5 µM (inactive)
- EC50 [4]: 25.4 µM (inactive)
Compound: O=C(CCN1CCN(c2ccccc2)CC1)N/N=C/c1ccccc1OC(F)F

Compound: CCOc1cccc(-c2c(C(=O)N/N=C/c3ccc(Br)cc3)nnn2-c2nonc2N)c1
- EC50 [21]: > 350 µM (not active)
- EC50 [22]: 160 µM (active)

- IC50 [1]: 53.5 µM (inactive)
Compound: Cc1ccc(S(=O)(=O)Oc2cccc(/C=N/Nc3ccc(C(=O)O)cc3)c2)cc1
